Results: publication PMC8950828 (Viruses, 2022)
Read-outs that look alike come from different tables or passages of the source.

How the values were obtained:
[1] = tested on: primary human immune cells (monocytes, M1 macrophages, M2 macrophages, MdDCs and T cells); test: Orangu cell viability assay, primary human immune cells overall; details: all tested immune cell types, 0.5–100 nM
in vitro [2] = details: human
in vitro [3] = details: human; remark: listed apart in the source
in vitro [4] = details: human; remark: listed apart in the source
in vitro [5] = details: human; remark: listed apart in the source
in vitro [6] = details: human; remark: listed apart in the source
[7] = tested on: 5′-UTRs of HCoV-229E, MERS-CoV and SARS-CoV-2; format: cell-based, human
M2 macrophages = details: human
MERS-CoV [8] = format: cell-based, Middle East respiratory syndrome coronavirus
HCoV-229E [9] = details: cited from earlier work
MERS-CoV [10] = details: cited from earlier work
[11] = tested on: monocyte-derived dendritic cells (MdDCs); details: human
5′-UTR of HEV (HEVgt3c) = format: cell-based, human
SARS-CoV-2 [12] = details: cited from earlier work
MERS-CoV [13] = test: microbe, parasite or virus in culture; format: cell-based, Middle East respiratory syndrome coronavirus
SARS-CoV-2 [14] = test: microbe, parasite or virus in culture; format: cell-based
HCoV-229E [15] = test: microbe, parasite or virus in culture; format: cell-based, human coronavirus 229E
SARS-CoV-2 [16] = details: cited from earlier work; remark: listed apart in the source

Compound | translation efficiency (reporter gene expression) with coronavirus 5′-UTRs [7] | reduction of viability (M2 macrophages) | effect on the replication of MERS-CoV (MERS-CoV [8]) | reduction of viral replication (MERS-CoV [8]) | EC50 (HCoV-229E [9]) [nM] | EC50 (MERS-CoV [10]) [nM] | effect on viability (T cells) | reduction of viability [11] | translation inhibition of HEVgt3c 5′-UTR reporter (5′-UTR of HEV (HEVgt3c)) | translation inhibition of HEVgt3c-Purine (5′-UTR of HEV (HEVgt3c)) | translation inhibition of destabilized variants (5′-UTR of HEV (HEVgt3c)) | further results
CONC(=O)[C@@H]1[C@H](O)[C@]2(O)c3c(OC)cc(OC)cc3O[C@]2(c2ccc(OC)cc2)[C@H]1c1ccccc1 [CR-1-30-B] | – | – | – | – | – | – | – | – | – | – | – | impact on cell viability [1]: essentially no impact on cell viability at all; CC50 (in vitro [2]): > 100 nM; CC50 (in vitro [3]): > 100 nM; CC50 (in vitro [4]): > 100 nM; CC50 (in vitro [5]): > 100 nM; CC50 (in vitro [6]): > 100 nM
CONC(=O)[C@H]1[C@@H](O)[C@@]2(O)c3c(OC)cc(OC)cc3O[C@@]2(c2ccc(OC)cc2)[C@@H]1c1ccccc1 [CR-1-31-B] | sensitive | approximately 50% | no significant effect | nearly undetectable levels | 2.9 | 1.9 | not affected | approximately 50% | translation inhibition only in the presence of a polypurine stretch | regain translation inhibition | – | TEER signal reduction (NHBE cells; human): ~ 25%; EC50 (SARS-CoV-2 [12]): 1.8 nM
COC(=O)[C@H]1[C@@H](O)[C@@]2(O)c3c(OC)cc(O[C@@H]4O[C@@H]([C@H](O)CO)CO[C@H]4OC)cc3O[C@@]2(c2ccc(OC)cc2)[C@@H]1c1ccccc1 [Silvestrol] | sensitive | approximately 50% | – | – | 3 | 1.3 | not affected | approximately 50% | either a stable hairpin substrate or a polypurine stretch is sufficient | regain translation inhibition | loss of the inhibitory effects | –
COc1cc2c(c(OC)n1)[C@]1(O)[C@H](O)[C@H](CN(C)C)[C@@H](c3ccccc3)[C@]1(c1ccc(C#N)cc1)O2 [Zotatifin] | sensitive | – | no significant effect | about two orders of magnitude | – | – | – | – | translation inhibition | regain translation inhibition | loss of the inhibitory effects | translation inhibition compared with 10 nM of silvestrol or CR-1-31-B [7]: slightly weaker; EC50 (MERS-CoV [13]): 4.31 nM; EC50 (MERS-CoV [13]; Middle East respiratory syndrome-related coronavirus, MRC5): 4.3 nM; viability reduced to (human monocytes): approximately 75%; EC50 (SARS-CoV-2 [14]): 41.6 nM; fold less efficient (higher EC50) than CR-1-31-B against SARS-CoV-2 (SARS-CoV-2 [14]): around 20 fold; EC50 (SARS-CoV-2 [14]; Severe acute respiratory syndrome coronavirus 2, Vero C1008): 41.6 nM; EC50 (HCoV-229E [15]): 3.86 nM; EC50 (HCoV-229E [15]; Human coronavirus 229E, MRC5): 3.9 nM; cytotoxicity by TEER (NHBE cells): no significant cytotoxicity; cytotoxicity (MRC-5 cells): no significant cytotoxicity; EC90 (SARS-CoV-2 [16]): 37 nM
